According to ChEMBL document CHEMBL4831486, “Design, synthesis and biological evaluation of pleuromutilin-Schiff base hybrids as potent anti-MRSA agents in vitro and in vivo” (Eur J Med Chem, 2021):
Values after ≈ are worked out from the molar mass of the structure shown.

Assays:
[1] = test system: Escherichia coli; experiment: Antibacterial activity against Escherichia coli ATCC 25922 assessed as inhibition of bacterial growth measured after 24 hrs by broth dilution method; assay type: functional
[2] = test system: Staphylococcus aureus; experiment: Antibacterial activity against Methycillin-resistant Staphylococcus aureus ATCC 43300 assessed as inhibition of bacterial growth measured after 24 hrs by broth dilution method; assay type: functional
[3] = test system: RAW264.7; experiment: Cytotoxicity against mouse RAW264.7 cells assessed as reduced cell viability at 4 ug/ml measured after 16 hrs by MTT assay; assay type: cell-based; details: raw264.7, 16 h, dose 4 µg/ml
[4] = test system: Staphylococcus aureus; experiment: Bactericidal activity against Methycillin-resistant Staphylococcus aureus ATCC 43300 assessed as inhibition of bacterial growth measured after 96 hrs by broth dilution method; assay type: functional
[5] = test system: Staphylococcus aureus; experiment: (§1) Antibacterial activity against methicillin-resistant Staphylococcus aureus ATCC 43300 assessed as post antibiotic effect by measuring time required for increase in 1 log10 CFU/ml of bacteria at 2X MIC incubated for 2 hrs followed by compound washout and measured after 20 hrs by time-kill assay (reference value: 2.51 hrs); assay type: functional
[6] = test system: Staphylococcus aureus; experiment: Antibacterial activity against Staphylococcus aureus 144 assessed as inhibition of bacterial growth measured after 24 hrs by broth dilution method; assay type: functional
[7] = test system: Escherichia coli; experiment: Bactericidal activity against Escherichia coli ATCC 25922 assessed as inhibition of bacterial growth measured after 96 hrs by broth dilution method; assay type: functional
[8] = test system: Staphylococcus aureus; experiment: as §1, with “4X” for “2X”; assay type: functional
[9] = test system: Staphylococcus aureus; experiment: Antibacterial activity against Staphylococcus aureus AD3 assessed as inhibition of bacterial growth measured after 24 hrs by broth dilution method; assay type: functional
[10] = test system: Staphylococcus aureus; experiment: Bactericidal activity against Staphylococcus aureus 144 assessed as inhibition of bacterial growth measured after 96 hrs by broth dilution method; assay type: functional
[11] = test system: Staphylococcus aureus; experiment: Antibacterial activity against Staphylococcus aureus ATCC 29213 assessed as inhibition of bacterial growth measured after 24 hrs by broth dilution method; assay type: functional
[12] = test system: Staphylococcus aureus; experiment: Bactericidal activity against Staphylococcus aureus ATCC 29213 assessed as inhibition of bacterial growth measured after 96 hrs by broth dilution method; assay type: functional
[13] = test system: HepG2; experiment: Cytotoxicity against human HepG2 cells assessed as reduced cell viability at 4 ug/ml measured after 16 hrs by MTT assay; assay type: cell-based; details: hepg2, 16 h, dose 4 µg/ml
[14] = test system: Staphylococcus aureus; experiment: Bactericidal activity against methicillin-resistant Staphylococcus aureus ATCC 43300 assessed as reduction in bacterial growth at 4X MIC measured for 24 hrs by time kill assay; assay type: functional; design: scale not given: the % may be the effect or the level left
[15] = test system: Staphylococcus aureus; experiment: Bactericidal activity against Staphylococcus aureus AD3 assessed as inhibition of bacterial growth measured after 96 hrs by broth dilution method; assay type: functional
[16] = test system: Staphylococcus aureus; experiment: as §1, with “4X” for “2X”, “2.44” for “2.51”; assay type: functional
[17] = test system: Staphylococcus aureus; experiment: as §1, with “2.44” for “2.51”; assay type: functional
[18] = test system: Staphylococcus aureus; experiment: Antibacterial activity against methicillin-resistant Staphylococcus aureus ATCC 43300 assessed as inhibition of bacterial growth measured after 8 passages at sub-MIC concentration incubated for 24 hrs by resistant development assay; assay type: functional
[19] = test system: Staphylococcus aureus; experiment: Antibacterial activity against methicillin-resistant Staphylococcus aureus ATCC 43300 infected in neutropenic CD1 mouse model of thigh infection assessed as reduction in bacterial colony forming unit in thigh at 20 mg/kg, iv qd measured after 24 hrs relative to control; assay type: functional
[20] = test system: RAW264.7; experiment: Cytotoxicity against mouse RAW264.7 cells assessed as reduced cell viability at 4 ug/ml measured after 16 hrs by MTT assay relative to control; assay type: cell-based; details: raw264.7, 16 h, at 4 µg/mL
[21] = test system: Staphylococcus aureus; experiment: as §1, with “4X” for “2X”, “2.04” for “2.51”; assay type: functional
[22] = test system: Staphylococcus aureus; experiment: Bactericidal activity against methicillin-resistant Staphylococcus aureus ATCC 43300 assessed as reduction in bacterial growth at 2X MIC measured for 24 hrs by time kill assay; assay type: functional; design: scale not given: the % may be the effect or the level left
[23] = test system: Staphylococcus aureus; experiment: as §1, with “2.04” for “2.51”; assay type: functional

Row | SMILES | MIC [1] | MIC [2] | Activity [3] | MBC [4] | MIC [6] | MBC [7] | MIC [9] | MBC [10] | MIC [11] | MBC [12] | Activity [13] | MBC [15] | other results
1 | C=C[C@]1(C)C[C@@H](OC(=O)CSc2nnc(C)n2/N=C/c2ccc(O)cc2)[C@]2(C)[C@H](C)CC[C@]3(CCC(=O)[C@H]32)[C@@H](C)[C@@H]1O | > 64 µg/mL | 0.25 µg/mL (≈ 0.42 µM) | Non-Toxic | 1 µg/mL (≈ 1.68 µM) | 1 µg/mL (≈ 1.68 µM) | > 64 µg/mL | 0.5 µg/mL (≈ 0.841 µM) | 2 µg/mL (≈ 3.36 µM) | 0.5 µg/mL (≈ 0.841 µM) | 2 µg/mL (≈ 3.36 µM) | Non-Toxic | 2 µg/mL (≈ 3.36 µM) | Time [5]: 2.55 h; Time [8]: 3.22 h; Activity [14]: 99.9%
2 | C=C[C@]1(C)C[C@@H](OC(=O)CSCCN(CC)CC)[C@]2(C)[C@H](C)CC[C@]3(CCC(=O)[C@H]32)[C@@H](C)[C@@H]1O [TIAMULIN] | > 64 µg/mL | 0.5 µg/mL (≈ 1.01 µM) | – | 1 µg/mL (≈ 2.03 µM) | 1 µg/mL (≈ 2.03 µM) | > 64 µg/mL | 1 µg/mL (≈ 2.03 µM) | 2 µg/mL (≈ 4.05 µM) | 1 µg/mL (≈ 2.03 µM) | 1 µg/mL (≈ 2.03 µM) | – | 2 µg/mL (≈ 4.05 µM) | Time [16]: 2.14 h; Time [17]: 1.72 h; MIC [18]: 32 µg/mL (≈ 64.8 µM); Activity [19]: -1.4 log10CFU/ml
3 | C=C[C@]1(C)C[C@@H](OC(=O)CSc2nnc(C)n2/N=C/c2ccc(C)cc2)[C@]2(C)[C@H](C)CC[C@]3(CCC(=O)[C@H]32)[C@@H](C)[C@@H]1O | > 64 µg/mL | 0.5 µg/mL (≈ 0.843 µM) | – | 1 µg/mL (≈ 1.69 µM) | 2 µg/mL (≈ 3.37 µM) | > 64 µg/mL | 1 µg/mL (≈ 1.69 µM) | 4 µg/mL (≈ 6.75 µM) | 1 µg/mL (≈ 1.69 µM) | 2 µg/mL (≈ 3.37 µM) | Non-Toxic | 4 µg/mL (≈ 6.75 µM) | Activity [20]: 30%
4 | C=C[C@]1(C)C[C@@H](OC(=O)CSc2nnc(C)n2/N=C/c2ccc(-c3ccccn3)cc2)[C@]2(C)[C@H](C)CC[C@]3(CCC(=O)[C@H]32)[C@@H](C)[C@@H]1O | > 64 µg/mL | 0.25 µg/mL (≈ 0.381 µM) | Non-Toxic | 1 µg/mL (≈ 1.52 µM) | 1 µg/mL (≈ 1.52 µM) | > 64 µg/mL | 0.5 µg/mL (≈ 0.762 µM) | 4 µg/mL (≈ 6.1 µM) | 0.5 µg/mL (≈ 0.762 µM) | 1 µg/mL (≈ 1.52 µM) | Non-Toxic | 2 µg/mL (≈ 3.05 µM) | Time [21]: 4.27 h; Activity [22]: 99.9%; MIC [18]: 2 µg/mL (≈ 3.05 µM); Activity [19]: -2.28 log10CFU/ml; Time [23]: 4.06 h
5 | C=C[C@]1(C)C[C@@H](OC(=O)CSc2nnc(C)n2/N=C/c2ccc(F)cc2)[C@]2(C)[C@H](C)CC[C@]3(CCC(=O)[C@H]32)[C@@H](C)[C@@H]1O | > 64 µg/mL | 1 µg/mL (≈ 1.68 µM) | Non-Toxic | 2 µg/mL (≈ 3.35 µM) | 2 µg/mL (≈ 3.35 µM) | > 64 µg/mL | 1 µg/mL (≈ 1.68 µM) | 4 µg/mL (≈ 6.7 µM) | 1 µg/mL (≈ 1.68 µM) | 4 µg/mL (≈ 6.7 µM) | Non-Toxic | 4 µg/mL (≈ 6.7 µM) | –
6 | C=C[C@]1(C)C[C@@H](OC(=O)CSc2nnc(C)n2/N=C/c2ccc(C(F)(F)F)cc2)[C@]2(C)[C@H](C)CC[C@]3(CCC(=O)[C@H]32)[C@@H](C)[C@@H]1O | > 64 µg/mL | 2 µg/mL (≈ 3.09 µM) | Non-Toxic | 4 µg/mL (≈ 6.18 µM) | 4 µg/mL (≈ 6.18 µM) | > 64 µg/mL | 2 µg/mL (≈ 3.09 µM) | 8 µg/mL (≈ 12.4 µM) | 2 µg/mL (≈ 3.09 µM) | 4 µg/mL (≈ 6.18 µM) | Non-Toxic | 8 µg/mL (≈ 12.4 µM) | –
7 | C=C[C@]1(C)C[C@@H](OC(=O)CSc2nnc(C)n2/N=C/c2ccccc2Cl)[C@]2(C)[C@H](C)CC[C@]3(CCC(=O)[C@H]32)[C@@H](C)[C@@H]1O | > 64 µg/mL | 1 µg/mL (≈ 1.63 µM) | Non-Toxic | 2 µg/mL (≈ 3.26 µM) | 2 µg/mL (≈ 3.26 µM) | > 64 µg/mL | 1 µg/mL (≈ 1.63 µM) | 4 µg/mL (≈ 6.52 µM) | 1 µg/mL (≈ 1.63 µM) | 2 µg/mL (≈ 3.26 µM) | Non-Toxic | 4 µg/mL (≈ 6.52 µM) | –
8 | C=C[C@]1(C)C[C@@H](OC(=O)CSc2nnc(C)n2/N=C/c2ccccc2O)[C@]2(C)[C@H](C)CC[C@]3(CCC(=O)[C@H]32)[C@@H](C)[C@@H]1O | > 64 µg/mL | 0.5 µg/mL (≈ 0.841 µM) | Non-Toxic | 1 µg/mL (≈ 1.68 µM) | 2 µg/mL (≈ 3.36 µM) | > 64 µg/mL | 1 µg/mL (≈ 1.68 µM) | 4 µg/mL (≈ 6.73 µM) | 1 µg/mL (≈ 1.68 µM) | 2 µg/mL (≈ 3.36 µM) | Non-Toxic | 4 µg/mL (≈ 6.73 µM) | –
